Our source for the Ki values is patent publication US8436159B2, “Glyphosate resistant class I 5-endolpyruvylshikimate-3-phosphate synthase (EPSPS)” (Monsanto Technology LLC, priority 2003, dated 2013).

In assay [1] the target is T1, maize (Zea mays) class I EPSPS variant TIPA (T102I, P106A), pMON42481, ZmTIPA SEQ ID NO:39 (Zea mays, UniProt O24566, P106A/T102I).
T1 construct: pMON42481
T1 sequence (O24566 1-444 T102I/P106A): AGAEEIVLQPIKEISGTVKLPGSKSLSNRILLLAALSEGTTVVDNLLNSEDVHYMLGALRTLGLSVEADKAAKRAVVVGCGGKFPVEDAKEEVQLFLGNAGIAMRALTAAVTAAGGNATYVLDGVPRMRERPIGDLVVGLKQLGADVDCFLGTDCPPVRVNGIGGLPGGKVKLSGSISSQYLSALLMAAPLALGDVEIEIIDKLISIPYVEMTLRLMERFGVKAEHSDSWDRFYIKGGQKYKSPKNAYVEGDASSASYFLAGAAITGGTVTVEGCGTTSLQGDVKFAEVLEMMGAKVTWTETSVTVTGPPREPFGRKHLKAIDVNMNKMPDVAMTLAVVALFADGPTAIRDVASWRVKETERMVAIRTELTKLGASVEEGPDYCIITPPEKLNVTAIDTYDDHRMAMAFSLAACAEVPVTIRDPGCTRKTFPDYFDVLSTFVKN
In words: EPSPS steady-state kinetics, TIPA variant. The assay is classed as biochemical. An excerpt:
(§1) The double variants of the present invention were made using pMON58452 (FIG. 5) as the template. This pMON58452 EPSPS gene template contains the maize EPSPS double variant T102I, P106T (TIPT) that was constructed by mutagenesis of pMON70467 with the mutagenesis primers mEmut-9-U and mEmut-10-L. The various mutagenesis primer sequences were designed and then were synthesized by Invitrogen Corp., Custom Primers and used in combination in a PCR to create the variant EPSPS coding sequences. The PCR was set up in a 50 μl reaction in the following manner: dH2O 38 μl; 2 mM dNTP 1 μL; 10× buffer 5 μL; pMON58452 1 μL (10 ng); primer-U 2 μL; primer-L 2 μL; pfu Turbo enzyme 1 μL. PCR was carried out on a MJ Research PTC-200 thermal cycler using the following program: Step 1—94° C. for 30 seconds; Step 2—94° C. for 30 seconds; Step 3—55° C. for 1 minute; Step 4—68° C. for 14 minute; Step 5—go to step 2, 16 times; Step 6—End. At the end of the PCR, 1 μl of the restriction enzyme DpnI was added to each 50 μl of PCR reaction and the mixture was incubated at 37° C. for 1 hour. […]

Assay [2] concerns the target T2, maize (Zea mays) class I EPSPS variant TIPC (T102I, P106C), pMON42485 (Zea mays, UniProt O24566, P106C/T102I).
T2 sequence (O24566 1-444 T102I/P106C): T1 sequence (O24566 1-444 T102I/P106A) with A106C
In words: EPSPS steady-state kinetics, TIPC variant.
Excerpt: as §1

Molecules are shown by their SMILES. Changes are numbered by the printed parent chain.

Turning to `O=C(O)CNCP(=O)(O)O` [glyphosate, N-phosphonomethylglycine], the Ki amounted to 148 ± 18.3 µM in assay [1] and 818 ± 74.4 µM in assay [2].
